In patent publication US6121284A, “2,3-bridged 1,4-dihydropyridines, and their use as medicaments” (Bayer Aktiengesellschaft, priority 1994, dated 2000) one finds activity data, which are given here for three compounds.

The experiment deals with C6-BU1-glioma cells. The experiment is described as follows: 86Rubidium efflux from C6-BU1-glioma cells. Type of experiment: cell-based. The note with it: Rattus norvegicus, C6-BU-1; 1 μM test substance applied; increase in 86Rb efflux above basal efflux caused by ionomycin set at 100%; read-out: residual efflux. As to the method:
^86 Rubidium Efflux from C6-BU1-glioma cells
The experiments were carried out in accordance with the method described by Tas et al. (Neurosci. Lett. 94, 279-284, (1988)), with slight changes. The increase in efflux above the basal efflux caused by ionomycin is calculated from the data and set at 100%. The stimulations in the presence of test substances are then based on this value.
With `COC(=O)C1=C(C)N(C)C2=C(C(=O)OC2)C1c1ccc(Cl)cc1` (stereo not drawn) [Example 8, Methyl1,4,5,7-tetrahydro-4-(4-chlorophenyl)-1,2-dimethyl-7-oxo-furo-[3,4b]-pyridine-3-carboxylate], the activity at 1 µM was 53%.

For `CC1=C(C(=O)OC(C)C)C(c2cccc(Cl)c2Cl)C2=C(CCCC2=O)N1C` (stereo not drawn) [Example 1, Isopropyl 4-(2,3-dichlorophenyl)-1,2-dimethyl-5-oxo-1,4,5,7,8-hexahydroquinoline-3-carboxylate], the activity at 1 µM amounted to 38%.

`COC(=O)C1=C(C)N(C)C2=C(C(=O)OC2)C1c1cccc(F)c1F` (stereo not drawn) [Example 11, Methyl 1,4,5,7-tetrahydro-4-(2,3-difluorophenyl)-1,2-dimethyl-5-oxo-furo-[3,4b]-pyridine-3-carboxylate]: the activity at 1 µM is 73%.
